Results published in the NIST ThermoML archive (doi:10.1016/j.jct.2015.09.028).

Columns and labels:
[1] = xn = mol fraction of the nth substance listed; details: 93 kPa, Liquid; for viscosity: Concentric cylinders viscometry; for mass density: Vibrating tube method
[2] = molar heat capacity at constant pressure; xn = mol fraction of the nth substance listed; details: Liquid, Flow calorimetry

c1ccc(Oc2ccccc2)cc1 [diphenyl ether] + c1ccc(-c2ccccc2)cc1
[1]
Details	mass density, x1 = 0.55 [kg/m3]	mass density, x1 = 0.705 [kg/m3]	mass density, x1 = 0.85 [kg/m3]	mass density, x1 = 1 [kg/m3]	viscosity, x1 = 0.55 [mPa·s]	viscosity, x1 = 0.705 [mPa·s]	viscosity, x1 = 0.85 [mPa·s]	viscosity, x1 = 1 [mPa·s]
288.15 K	–	1066.7	–	–	–	5.12	–	–
293.15 K	–	1062.4	–	–	–	4.39	–	–
298.15 K	–	1058.2	1064.2	–	–	3.81	3.8	–
303.15 K	–	1053.9	1060	1065.5	–	3.34	3.34	3.33
308.15 K	1043.7	1049.7	1055.7	1061.2	2.99	2.96	2.96	2.96
313.15 K	1039.5	1045.4	1051.3	1056.9	2.7	2.64	2.65	2.65
323.15 K	1031.1	1037	1042.7	1048.2	2.15	2.15	2.16	2.17
333.15 K	1022.6	1028.5	1034.1	1039.6	1.79	1.79	1.81	1.82
343.15 K	1014.1	1020	1025.5	1030.9	1.52	1.52	1.54	1.54
353.15 K	1005.6	1011.5	1016.9	1022.3	1.31	1.31	1.32	1.33
363.15 K	997.5	1003	1008.3	1013.7	1.14	1.14	1.15	1.16
373.15 K	989.2	994.9	999.8	1005.2	1	1.01	1.01	1.03

molar heat capacity at constant pressure [J/K/mol], [2]
Details	100 kPa	5000 kPa	10000 kPa	15000 kPa	20000 kPa	25000 kPa
293.15 K, x1 = 0.705	260.48	258.49	256.34	255.18	253.86	252.7
313.15 K, x1 = 0.55	273.53	272.22	270.76	269.94	269.29	268.96
313.15 K, x1 = 0.705	270.74	269.58	267.76	267.1	265.94	265.11
313.15 K, x1 = 0.85	272.02	270.67	270.17	269.67	269.5	269.33
313.15 K, x1 = 1	274.37	273.52	273.18	272.5	272.16	–
333.15 K, x1 = 0.55	285.75	284.45	284.29	283.96	283.8	–
333.15 K, x1 = 0.705	279.34	278.02	276.86	275.54	274.21	273.39
333.15 K, x1 = 0.85	285.1	284.6	284.27	284.1	283.76	283.43
333.15 K, x1 = 1	286.97	285.95	284.93	284.59	283.39	282.71
353.15 K, x1 = 0.55	295.7	294.88	294.55	294.39	293.25	293.09
353.15 K, x1 = 0.705	290.93	289.27	287.62	286.96	285.47	283.98
353.15 K, x1 = 0.85	299.2	297.86	297.69	297.35	297.19	296.68
353.15 K, x1 = 1	299.05	298.03	296.84	296.33	295.48	294.63
